Experimental data: US11472814B2, “Thienopyranones and furanopyranones as checkpoint inhibitors and modulators of anti-tumor immunity” (SignalRx Pharmaceuticals, Inc., priority 2017, dated 2022)
“And” between values parts separate entries of the source, which are not always exact repeats. Equal entries are not always repeated. “Also recorded” adds a separate entry of the source.

What was measured:
CT26 tumors = experiment: CT26 tumor growth in immunocompetent Balb/c mice; assay type: in vivo
Description: (§1) We investigated the effect of Compound 3 on immune cell in vitro and on tumor growth in in vivo in immunocompetent syngeneic tumor models and the effects on the macrophage and T cell immune compartment in vivo by this compound. […] In order to distinguish whether Compound 3 blocks tumor growth due to its effect on immune cell compartment and not on tumor compartment, we tested the effect of this chemotype on CT26 tumor growth in immunodeficient NSG mice vs immunocompetent Balb/c mice. […] Compound 3 has combinatorial immune-oncologic activity in vivo to stimulate anti-cancer innate and adaptive immunity in well-defined accepted immune competent murine models for cancer immunotherapy.
Tumor volumes of CT26 inoculated subcutaneously in Balb/c mice treated with 3 mg/Kg Compound 3, or 200 ug anti-PDL1 or both. Conclusion: Compound 3 has greater antitumor immune activating activity as compared to anti-PDL1 monoclonal antibody treatment in this in vivo immune-oncology model. Compound 3 suppressed tumor growth by 88% in this model (n=6, p<0.001, t test) as compared to vehicle control treated mice.
Conclusion: this establishes effect of Compound 3 as immune-oncologically active agent in cancer immunotherapy. In immunocompetent mice with same tumor cell ino kculum Compound 3 inhibited CT26 tumor growth by 58% decrease in tumor volume. (n=x, p<0.001, t test).
In contrast to above data, Compound 3 has a marked significant inhibitory effect on CT26, LLC and MC38 tumor growth in immunocompetent murine models. Conclusion: this establishes effect of Compound 3 as immune-oncologically active agent in cancer immunotherapy. In immunocompetent mice with same tumor cell inoculum Compound 3 inhibited tumor growth by from 58-68%. p<0.001 in all experiments compared to vehicle control.

PI3K γ = target: T1, PI3K γ (Homo sapiens, UniProt P48736); experiment: PI3K gamma inhibition IC50 (Thermo Fisher); assay type: biochemical; details: 10-point curve
T1 construct: purchased Thermo Fisher Scientific-Biosciences Life Sciences Solutions, Madison, Wis; (contract assay service)
T1 sequence (P48736 whole entry): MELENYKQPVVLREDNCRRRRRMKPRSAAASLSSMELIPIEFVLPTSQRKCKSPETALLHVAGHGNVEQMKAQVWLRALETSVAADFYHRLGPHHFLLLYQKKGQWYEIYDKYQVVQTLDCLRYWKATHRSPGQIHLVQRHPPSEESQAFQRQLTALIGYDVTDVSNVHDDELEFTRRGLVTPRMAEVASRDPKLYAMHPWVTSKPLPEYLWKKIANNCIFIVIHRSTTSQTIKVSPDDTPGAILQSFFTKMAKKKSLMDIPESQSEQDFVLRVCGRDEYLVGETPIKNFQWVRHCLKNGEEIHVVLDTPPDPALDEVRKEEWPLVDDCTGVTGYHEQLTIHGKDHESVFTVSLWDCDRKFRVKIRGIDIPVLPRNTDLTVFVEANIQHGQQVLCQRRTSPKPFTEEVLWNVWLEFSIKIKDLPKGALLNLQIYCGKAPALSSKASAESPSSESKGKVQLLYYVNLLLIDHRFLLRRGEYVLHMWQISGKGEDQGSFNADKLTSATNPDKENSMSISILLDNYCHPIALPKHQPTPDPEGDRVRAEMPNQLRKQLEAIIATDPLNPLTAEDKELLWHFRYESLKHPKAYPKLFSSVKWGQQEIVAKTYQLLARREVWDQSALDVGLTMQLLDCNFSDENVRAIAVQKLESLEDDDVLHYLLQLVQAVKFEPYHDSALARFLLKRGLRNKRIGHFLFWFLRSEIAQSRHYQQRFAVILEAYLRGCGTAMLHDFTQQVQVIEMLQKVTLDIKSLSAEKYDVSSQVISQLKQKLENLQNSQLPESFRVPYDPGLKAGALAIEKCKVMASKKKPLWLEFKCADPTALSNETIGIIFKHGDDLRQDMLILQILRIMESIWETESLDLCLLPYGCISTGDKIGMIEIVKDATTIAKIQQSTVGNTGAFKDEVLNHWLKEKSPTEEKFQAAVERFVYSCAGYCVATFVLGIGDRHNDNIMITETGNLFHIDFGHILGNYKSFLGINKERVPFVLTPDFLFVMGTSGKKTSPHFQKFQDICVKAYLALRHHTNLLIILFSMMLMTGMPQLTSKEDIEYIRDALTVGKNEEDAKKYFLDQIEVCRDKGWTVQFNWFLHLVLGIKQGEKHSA
Description: (§2) The inhibitory activity of a compound of the invention against PI3K and/or BRD4 and/or SYK and/or CDK4/6 can be readily determined using methods known to the skilled artisan, or by commercial vendors offering such services. […] In vivo, PI3K inhibition can be determined from target tissue biopsies by standard tissue processing to disrupt cells and then performing Western Blot analysis to determine the presence or absence of pAKT (substrate of PI3K) relative to a control sample. The activity of a compound of the invention as an inhibitor of a bromodomain-containing protein, such as a BET protein, such as BRD2, BRD3, BRD4, and/or BRDT, or an isoform or mutant thereof, may be determined in vitro, in vivo, or in a cell line. In vitro assays include assays that determine inhibition of bromodomain-containing proteins. Alternatively, inhibitor binding may be determined by running a competition experiment where a provided compound is incubated with a bromodomain-containing protein, such as a BET protein bound to known ligands, labeled or unlabeled. For example, bromodomain inhibition can be determined in vitro using Alpha Screen Technology (http://www.reactionbiologv.com/webapps/site/NewsPDFs/Bromodomain%20Assay %20Platform %20for %20Drug %20Screening %20and %20Discovery.pdf). In vivo bromodomain inhibition can be determined indirectly by evaluating the amount of protein present of proteins whose genes' transcription is influenced or controlled by the bromodomain protein, for example, the MYCN protein transcription is controlled by BRD4 (J. E. Delmore et al., Cell 2011, 146, 904-917; A. Puissant, Cancer Discov. 2013, 3, 308-323). Bromodomain inhibition may also be predicted by in silico modeling as described below in the Examples. Additionally, the company Promega offers a SYK luminescent assay to determine a compound's ability to inhibit the SYK protein (https://www.promega.com/-/media/files/resources/protocols/kinase-enzyme-appnotes/syk-kinase-assay-protocol.pdf?la=en).
(§3) Compounds of the invention were characterized for their ability to inhibit target proteins using third party vendors offering such services. PI3K alpha, gamma, and delta inhibition activity was determined by Thermo Fisher Scientific-Biosciences Life Sciences Solutions, Madison, Wis. The bromodomain protein inhibition (binding domain 1 and 2 of BRD4) as well as SYK inhibition was determined at Reaction Biology Corp., Malvern, Pa. […] The IC50 data (shown below in Table 5) was calculated from a 10-point curve and is expressed in nanomolar concentration (nM) rounded off to the nearest whole number. […]

CT26 tumor cells = experiment: In vitro viability of CT26 tumor cells; assay type: cell-based; details: for % Cell Viability: CT26 tumor cells in vitro
Description: as §1
Compound 3 has no effect on the in vitro viability of CT26 tumor cells.

BRD4-1 = target: T2, BRD4-1 (Homo sapiens, UniProt O60885); experiment: Bromodomain protein inhibition IC50, binding domain 1 of BRD4 (Reaction Biology Corp.); details: 10-point curve
T2 construct: purchased Reaction Biology Corp., Malvern, Pa; (contract assay service)
Description: as §2, §3

T cells in LLC tumors = experiment: Quantification of CD3+, CD4+ and CD8+ T cells in LLC tumors; assay type: in vivo, mice
Description: Quantification of CD3+, CD4+ and CD8+ T cells in the LLC tumors treated with Compound 3 (n=3, *p<0.05, t test). Conclusion: Compound 3 decreased CD4+ cells by 50% and increased CD8+ T cells in the tumor compartment by 7% in vivo as compared to vehicle control treated mice.

Cc1nn(-c2ccnc(Nc3ccc(-c4csc5c(=O)cc(N6CCOCC6)oc45)cc3)n2)cc1CN1CCC1 [Compound 3, 3-[p-(4-{4-[(1-Azetidinyl)methyl]-3-methyl-1H-pyrazol-1-yl}-2-pyrimidinylamino)phenyl]-5-morpholino-4-oxa-1-thia-7-indenone]
CT26 tumor growth suppression (CT26 tumors; Balb/c mice, 3 mg/Kg, n=6, vs vehicle): 88%
% Growth inhibition compared to control (CT26 tumors; CT26 subcutaneous in Balb/c mice, 3 mg/Kg Compound 3, 200 ug anti-PDL1 or both, n=6): 88 ± 10%
% Growth inhibition of CT26 tumor (CT26 tumors; immunocompetent Balb/c mice, vs vehicle): 58% and 58 +/− 10%
CT26 tumor growth, combination (CT26 tumors; in combination with anti-PDL1 antibody): decrease in tumor growth
IC50 (PI3K γ): 5 to 50 µM
in vitro viability of CT26 tumor cells (CT26 tumor cells): didn't show any effect; also recorded: no effect
% Cell Viability (CT26 tumor cells; Log Inhibitor conc. 1.68867): 96.5 ± 5.3%
% Cell Viability (CT26 tumor cells; Log Inhibitor conc. 1.9897): 96 ± 8.0%
% Cell Viability (CT26 tumor cells; Log Inhibitor conc. 2.29073): 91.6 ± 8.9%
% Cell Viability (CT26 tumor cells; Log Inhibitor conc. 2.59176): 91.3 ± 5.13%
% Cell Viability (CT26 tumor cells; Log Inhibitor conc. 2.89279): 89.8 ± 6.7%
% Cell Viability (CT26 tumor cells; Log Inhibitor conc. 3.19382): 87.3 ± 4.1%
% Cell Viability (CT26 tumor cells; Log Inhibitor conc. 3.49485): 87.1 ± 9.6%
% Cell Viability (CT26 tumor cells; Log Inhibitor conc. 3.79588): 84.3 ± 4.3%
% Cell Viability (CT26 tumor cells; Log Inhibitor conc. 4.09691): 83.9 ± 6.27%
% Cell Viability (CT26 tumor cells; Log Inhibitor conc. 4.39794): 83.6 ± 5.1%
% Cell Viability (CT26 tumor cells; Log Inhibitor conc. 4.69897): 77.4 ± 5.0%
IC50 (BRD4-1): 1 to 5 µM
CD4+ T cells (% of CD3+ T cells) (T cells in LLC tumors; LLC tumor): 23 ± 7, % of CD3+ T cells
CD8+ T cells (% of CD3+ T cells) (T cells in LLC tumors; LLC tumor): 34 ± 1.1, % of CD3+ T cells
decrease of CD4+ cells (T cells in LLC tumors; LLC tumor, vs vehicle): 50%
increase of CD8+ T cells in the tumor compartment (T cells in LLC tumors; vs vehicle): 7%
